From patent US20080300147A1, “Detection and Treatment of Fibrotic Disorders” (priority 2004, published 2008)

Key:
[1] = test system: leiomyoma smooth muscle cells (LSMC); experiment: Realtime PCR mRNA expression in treated LSMC; format: cell-based, human
Protocol: (§1) Isolation and Culture of Leiomyoma and Myometrial Smooth Muscle Cells. […] Only untreated tissues were used for isolation of LSMC and MSMC. […] LSMC and MSMC were cultured in 6-well plates at an approximate density of 10^6 cells/well in DMEM-supplemented media containing 10% FBS. After reaching visual confluence, the cells were washed in serum-free media and incubated for 24 hrs under serum-free, phenol red-free condition (Chegini, N et al. Mol Hum Reprod, 2002, 8:1071-8).
(§2) Quantitative RealTime PCR. Realtime PCR was utilized for verification of 10 differentially expressed and regulated genes identified in leiomyoma and myometrium as well as LSMC and MSMC from untreated and GnRHa-treated cohorts. The selection of these genes was based not only on their expression values (up or downregulation), but classification and biological functions important to leiomyoma growth and regression, regulation by ovarian steroids, GnRHa and TGF-β. They are IL-11, CITED2, Nur77, EGR3, TGIF, TIEG, p27, p57, GAS-1 and GPRK5 representing cytokines, transcription factors, cell cycle regulators and signal transduction.
(§3) Determination of TGF-β1 on global gene expression in LSMC and MSMC. All the materials utilized for this study including isolation of leiomyoma and myometrial cells are identical to those described in detail above. To determine the effect of TGF-β1 on global gene expression in LSMC and MSMC, the cells were cultured in 6-well plates at approximate density of 10^6 cells/well in DMEM-supplemented media containing 10% FBS. […] The cells were then treated with 2.5 ng/ml of TGF-β1 (R & D System, Minneapolis, […].) for 2, 6 and 12 hours. […] The cells were washed and then treated with TGF-β1 (2.5 ng/ml) for 2 hours. Parallel experiments using untreated cells were used as controls including an additional control for TGF-β type II receptor antisense and sense experiments.
(§4) Total cellular RNA was isolated from LSMC- and MSMC-treated and untreated controls and subjected to microarray analysis. To maintain standard and allow for comparative analysis, the GeneChips used in this study were utilized, simultaneously processed and their gene expression values were subjected to global normalization and transformation. Following these unsupervised assessments the coefficient of variation was calculated for each probe set across all the chips used in this study, and the selected gene expression values of this study were independently subjected to supervised learning including R programming analysis and ANOVA with false discovery rate selected at p<0.001 (Moustakas, A. Immunol Lett, 2002, 82:85-91; Verrecchia, F. et al. J Biol Chem, 2001, 276:17058-17062). The genes identified in these cohorts were analyzed for functional annotation and visualized using Database for Annotation, Visualization, and Integrated Discovery (DAVID) software with integrated GoCharts. Following the analysis, we selected 12 of the differentially expressed and regulated genes, including 10 identified and validated in leiomyoma and myometrium from untreated and GnRHa-treated cohorts, as well as LSMC and MSMC treated in vitro with GnRHa, for validation in response to TGF-β-time dependent action using Realtime PCR. They include IL-11, EGR3, CITED2, TIEG, TGIF, Nur77, p27, p57, GAS-1 and GPRK5. In addition, the expression of Runx1 and Runx2, transcription factors that interact with TGF-β receptor signaling pathways (Zavadil, J. et al. Proc Natl Acad Sci USA, 2001, 98:6686-6691), was validated in LSMC and MSMC as well as in leiomyoma and myometrium from GnRHa-treated and untreated cohorts. Detail description of the materials and methods for Realtime PCR as well as data analysis is provided in Chegini, N. et al. J Soc Gynecol Investig, 2003, 10:161-71.
(§5) Isolation and Culture of Leiomyoma and Myometrial Smooth Muscle Cells. Leiomyoma and myometrial smooth muscle cells (LSMC and MSMC) were isolated and cultured as previously described (Chegini, N. et al. Mol Hum Reprod, 2002, 8:1071-1078). […]

[2] = test system: myometrial smooth muscle cells (MSMC); experiment: Realtime PCR mRNA expression in treated MSMC; format: cell-based, human
Protocol: as §1, §2, §3, §4, §5

[3] = U0126 20 μM 2 hrs, then GnRHa 0.1 μM 2 hrs
[4] = U0126 20 μM 2 hrs, then TGF-β1 2.5 ng/ml 2 hrs
[5] = TGF-β1 2.5 ng/ml, 2, 6 and 12 hours
[6] = TGF-β1 2.5 ng/ml, 2, 6 and 12 hrs

N#CC(=C(/N)Sc1ccccc1N)/C(C#N)=C(\N)Sc1ccccc1N [U0126]
limited effect: TGF-β-mediated action on CCN2 in LSMC [1, 4] | TGF-β-mediated action on CCN2 in MSMC [2, 4]
altered: GnRHa-mediated action on CCN2 expression in LSMC [1, 3] | GnRHa-mediated action on CCN3 expression in LSMC [1, 3] | GnRHa-mediated action on CCN4 expression in LSMC [1, 3] | GnRHa-mediated action on S100A4 expression in LSMC [1, 3] | GnRHa-mediated action on fibulin-1C expression in LSMC [1, 3] | basal CCN2 mRNA expression in LSMC ([1]; U0126 20 μM pretreatment 2 hrs) | basal CCN3 mRNA expression in LSMC ([1]; U0126 20 μM pretreatment 2 hrs) | basal CCN4 mRNA expression in LSMC ([1]; U0126 20 μM pretreatment 2 hrs) | basal S100A4 mRNA expression in LSMC ([1]; U0126 20 μM pretreatment 2 hrs) | basal fibulin-1C mRNA expression in LSMC ([1]; U0126 20 μM pretreatment 2 hrs) | GnRHa-mediated action on CCN2 expression in MSMC [2, 3] | GnRHa-mediated action on CCN3 expression in MSMC [2, 3] | GnRHa-mediated action on CCN4 expression in MSMC [2, 3] | GnRHa-mediated action on S100A4 expression in MSMC [2, 3] | GnRHa-mediated action on fibulin-1C expression in MSMC [2, 3] | basal CCN2 mRNA expression in MSMC ([2]; U0126 20 μM pretreatment 2 hrs) | basal CCN3 mRNA expression in MSMC ([2]; U0126 20 μM pretreatment 2 hrs) | basal CCN4 mRNA expression in MSMC ([2]; U0126 20 μM pretreatment 2 hrs) | basal S100A4 mRNA expression in MSMC ([2]; U0126 20 μM pretreatment 2 hrs) | basal fibulin-1C mRNA expression in MSMC ([2]; U0126 20 μM pretreatment 2 hrs)
inhibiting: TGF-β-mediated action on FMOD in MSMC [2, 4]
increased: expression of FMOD in LSMC treated with GnRHa ([1]; U0126 20 μM 2 hrs, then GnRHa 2 hrs, compared to U0126-treated cells) | TGF-β-mediated action on FMOD in LSMC [1, 4] | basal expression of FMOD in LSMC ([1]; U0126 20 μM pretreatment 2 hrs) | expression of FMOD in MSMC treated with GnRHa ([2]; U0126 20 μM 2 hrs, then GnRHa 2 hrs, compared to untreated control) | basal expression of FMOD in MSMC ([2]; U0126 20 μM pretreatment 2 hrs)
inhibited: TGF-β-mediated CCN4 expression in LSMC [1, 4] | TGF-β-mediated S100A4 expression in LSMC [1, 4] | TGF-β-mediated fibulin-1C expression in LSMC [1, 4] | TGF-β-mediated CCN3 expression in MSMC [2, 4] | TGF-β-mediated CCN4 expression in MSMC [2, 4] | TGF-β-mediated S100A4 expression in MSMC [2, 4] | TGF-β-mediated fibulin-1C expression in MSMC [2, 4]

TGF-β1: human recombinant TGF-β1 (R&D System), used at 2.5 ng/ml
two fold: increase of CCN4 mRNA expression in LSMC [1, 6] | increase of CCN4 mRNA expression in MSMC [2, 6]
inhibiting: CCN3 mRNA expression in LSMC [1, 6] | CCN3 mRNA expression in MSMC [2, 6]
transiently increased: Nur77 expression in LSMC [1, 5] | TGIF expression in LSMC [1, 5] | TIEG expression in LSMC [1, 5] | Nur77 expression in MSMC [2, 5] | TGIF expression in MSMC [2, 5] | TIEG expression in MSMC [2, 5]
suppression: GAS1 expression in MSMC [2, 5]
moderately inhibiting: S100A4 mRNA expression in LSMC [1, 6] | fibulin-1C mRNA expression in LSMC [1, 6] | S100A4 mRNA expression in MSMC [2, 6]
suppressed: Gas1 expression in LSMC [1, 5] | p27Kip1 expression in LSMC [1, 5] | p57Kip2 expression in LSMC [1, 5]
5-10 fold: increase in FMOD expression in MSMC ([2]; TGF-β1 2.5 ng/ml, declined to control levels)
significantly increased: FMOD expression in MSMC ([2]; TGF-β1 2.5 ng/ml, gradual reduction to control levels after 12 hrs)
increasing: fibulin-1C mRNA expression in MSMC [2, 6]
either no effect, or inhibited: FMOD expression in LSMC ([1]; TGF-β1 2.5 ng/ml, inhibition after 12 hrs)
biphasic fashion: p27Kip1 expression in MSMC [2, 5] | p57Kip2 expression in MSMC [2, 5]
